{
  "source": "patent US20240293367A1",
  "about": "“METHODS OF TREATING DISORDERS WITH A […]” (Cybin IRL Limited, priority 2023, published 2024)",
  "key": {"[1]": {"assay": "28-day (4-week GLP) toxicology study in dogs, toxicokinetic exposure", "conditions": "both sexes, dog, in vivo, toxicokinetic data, 28-day toxicology study in dogs, combined male and female", "excerpt": "The exposure limits will be applied on mean values within a cohort."}, "[2]": {"assay": "Safety and tolerability (adverse events) in the Phase I/IIa study"}, "[3]": {"conditions": "all cohorts, psilocin-d10 n = 35"}},
  "data": [
    {"molecule": "[2H]C([2H])([2H])N(C([2H])([2H])[2H])C([2H])([2H])C([2H])([2H])c1c[nH]c2cccc(O)c12", "note": "[psilocin-d10, 3-(2-(bis(methyl-d3)amino)ethyl-1,1,2,2-d4)-1H-indol-4-ol]", "values": [
      {"measurement": "AUC(0-t)", "setting": "[1]; read-out: predefined maximum exposure level, AUC0-24", "result": 123, "unit": "ng·h/mL"},
      {"measurement": "Cmax", "setting": "[1]; read-out: predefined maximum exposure level, Cmax", "result": 63, "unit": "ng/mL"},
      {"measurement": "nausea at least possibly related to study treatment", "setting": "[2]; 8 mg", "result": "2 out of 4"},
      {"measurement": "nausea at least possibly related to study treatment", "setting": "[2]; 12 mg", "result": "6 out of 24"},
      {"measurement": "nausea at least possibly related to study treatment", "setting": "[2]; 16 mg", "result": "3 out of 12"},
      {"measurement": "headache at least possibly related to study treatment", "setting": "[2]; Cohort 3", "result": 1, "unit": "subject"},
      {"measurement": "headache at least possibly related to study treatment", "setting": "[2]; Cohort 4", "result": 1, "unit": "subject"},
      {"measurement": "vomiting at least possibly related to study treatment", "setting": "[2]; Cohort 4", "result": 1, "unit": "subject"},
      {"measurement": "vomiting at least possibly related to study treatment", "setting": "[2]; Cohort 6", "result": 3, "unit": "subjects"},
      {"measurement": "discontinuation due to AEs", "setting": "[2]; all cohorts", "result": "No participants discontinued due to AEs"},
      {"measurement": "Drug-related, treatment-emergent adverse events: At least one AE", "setting": "[2]; all cohorts incl. healthy volunteers, psilocin-d10 n = 35", "result": "21 (60.0) n (%)"},
      {"measurement": "Drug-related TEAE: Affect lability", "setting": "[2]; [3]", "result": "1 (2.9) n (%)"},
      {"measurement": "Drug-related TEAE: Anxiety", "setting": "[2]; [3]", "result": "2 (5.7) n (%)"},
      {"measurement": "Drug-related TEAE: Blood pressure increased", "setting": "[2]; [3]", "result": "5 (14.3) n (%)"},
      {"measurement": "Drug-related TEAE: Confusional state", "setting": "[2]; [3]", "result": "1 (2.9) n (%)"},
      {"measurement": "Drug-related TEAE: Dizziness", "setting": "[2]; [3]", "result": "1 (2.9) n (%)"},
      {"measurement": "Drug-related TEAE: Eructation", "setting": "[2]; [3]", "result": "1 (2.9) n (%)"},
      {"measurement": "Drug-related TEAE: Headache", "setting": "[2]; [3]", "result": "3 (8.6) n (%)"},
      {"measurement": "Drug-related TEAE: Nasal congestion", "setting": "[2]; [3]", "result": "1 (2.9) n (%)"},
      {"measurement": "Drug-related TEAE: Nausea", "setting": "[2]; [3]", "result": "6 (17.1) n (%)"},
      {"measurement": "Drug-related TEAE: Panic Attack", "setting": "[2]; [3]", "result": "1 (2.9) n (%)"},
      {"measurement": "Drug-related TEAE: Tachycardia", "setting": "[2]; [3]", "result": "1 (2.9) n (%)"},
      {"measurement": "Drug-related TEAE: Vomiting", "setting": "[2]; [3]", "result": "2 (5.7) n (%)"},
      {"measurement": "tolerability", "setting": "[2]; dosage levels up to 16 mg, 8 healthy volunteers and 38 participants with MDD", "result": "well tolerated without significant adverse effects"}
    ]}
  ]
}
